According to publication PMC8044227, “Cardiolipin enhances the enzymatic activity of cytochrome bd and cytochrome bo3 solubilized in dodecyl-maltoside” (Scientific Reports, 2021):

Key:
Type in all cases: biochemical
[1] = target: T1, cytochrome bd (E. coli) (Escherichia coli, UniProt P0ABJ9); test: O2 consumption activation, Clark-type electrode; conditions: activator; bovine heart lipid, mixed acyl chains (primarily linoleic acid); ubiquinol-1 substrate; 0.025% DDM, pH 7.5, 37 °C
T1 construct: gene cydA; CydABX complex, Strep-tag, expressed in E. coli MB43, streptactin-purified in DDM
T1 sequence (P0ABJ9 1-522): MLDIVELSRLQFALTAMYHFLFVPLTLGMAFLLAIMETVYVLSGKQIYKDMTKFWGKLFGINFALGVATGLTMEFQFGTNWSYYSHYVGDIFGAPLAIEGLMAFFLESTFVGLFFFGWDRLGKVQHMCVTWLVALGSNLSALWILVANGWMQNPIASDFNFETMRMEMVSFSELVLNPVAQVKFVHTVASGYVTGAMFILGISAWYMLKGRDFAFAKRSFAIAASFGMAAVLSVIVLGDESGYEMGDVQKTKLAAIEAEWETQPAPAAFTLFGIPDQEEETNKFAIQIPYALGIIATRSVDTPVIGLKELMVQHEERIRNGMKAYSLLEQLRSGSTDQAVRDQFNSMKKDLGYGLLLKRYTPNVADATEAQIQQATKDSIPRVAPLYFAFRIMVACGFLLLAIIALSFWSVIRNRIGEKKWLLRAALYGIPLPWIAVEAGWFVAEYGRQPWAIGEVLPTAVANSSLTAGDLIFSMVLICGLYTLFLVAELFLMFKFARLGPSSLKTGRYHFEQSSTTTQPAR
T1 sequence (P0ABK2 1-379 partner): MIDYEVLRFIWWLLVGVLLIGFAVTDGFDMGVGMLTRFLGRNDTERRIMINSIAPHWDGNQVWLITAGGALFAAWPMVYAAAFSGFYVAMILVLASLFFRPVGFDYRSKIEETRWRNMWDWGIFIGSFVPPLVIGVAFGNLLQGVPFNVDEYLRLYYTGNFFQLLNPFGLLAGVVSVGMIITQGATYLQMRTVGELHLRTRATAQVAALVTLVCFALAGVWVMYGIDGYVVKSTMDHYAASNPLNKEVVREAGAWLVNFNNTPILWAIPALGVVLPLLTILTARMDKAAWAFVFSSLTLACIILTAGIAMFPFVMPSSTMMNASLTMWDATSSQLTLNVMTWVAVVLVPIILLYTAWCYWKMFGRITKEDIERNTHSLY
T1 sequence (P56100 1-37 partner): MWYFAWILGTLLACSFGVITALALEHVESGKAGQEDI
Source text: O2 consumption activation, Clark-type electrode on cytochrome bd (E. coli) | We examined the effect of CL and observed ~ twofold activation of the oxygen consumption activity

[2] = target: T2, cytochrome bd (G. thermodenitrificans) (Geobacillus stearothermophilus, UniProt Q9Z9N1); test: O2 consumption, Clark-type electrode; conditions: 200 μM quinone, 10 mM DTT; 0.025% DDM, pH 7.5, 37 °C; no cardiolipin
T2 construct: gene cbdA; CbdAB expressed from pSTE-cbdAB in G. thermodenitrificans K1041, purified from membranes in MEGA9+10
T2 sequence (Q9Z9N1 1-448): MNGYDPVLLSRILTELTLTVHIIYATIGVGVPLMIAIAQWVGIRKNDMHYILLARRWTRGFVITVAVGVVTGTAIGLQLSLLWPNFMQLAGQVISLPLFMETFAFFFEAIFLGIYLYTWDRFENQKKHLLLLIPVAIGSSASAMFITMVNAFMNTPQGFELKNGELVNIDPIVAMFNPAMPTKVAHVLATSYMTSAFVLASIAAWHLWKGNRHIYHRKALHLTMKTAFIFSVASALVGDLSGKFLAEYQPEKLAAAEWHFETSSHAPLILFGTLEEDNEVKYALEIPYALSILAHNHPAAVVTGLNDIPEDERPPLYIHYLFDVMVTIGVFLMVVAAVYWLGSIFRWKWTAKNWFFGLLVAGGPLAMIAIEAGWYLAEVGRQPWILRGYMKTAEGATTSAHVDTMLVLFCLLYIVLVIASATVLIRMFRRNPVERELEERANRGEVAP
T2 sequence (Q9Z9N0 1-342 partner): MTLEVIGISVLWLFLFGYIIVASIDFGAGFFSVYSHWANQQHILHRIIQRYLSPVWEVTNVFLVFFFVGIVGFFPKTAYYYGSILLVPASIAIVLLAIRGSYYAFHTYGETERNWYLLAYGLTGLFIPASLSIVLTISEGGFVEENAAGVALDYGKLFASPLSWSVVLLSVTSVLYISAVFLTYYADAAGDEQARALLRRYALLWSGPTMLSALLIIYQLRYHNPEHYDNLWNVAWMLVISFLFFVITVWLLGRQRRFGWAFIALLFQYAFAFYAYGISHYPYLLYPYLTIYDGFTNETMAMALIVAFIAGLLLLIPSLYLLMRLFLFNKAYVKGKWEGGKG

[3] = target: T3, cytochrome bd (C. glutamicum) (Corynebacterium glutamicum, UniProt Q9KWL8); test: O2 consumption, Clark-type electrode; conditions: 200 μM quinone, 10 mM DTT; 0.025% DDM, pH 7.5, 37 °C; no cardiolipin
T3 construct: gene cydA; expressed from pPC4-cydABDC in C. glutamicum delta-ctaD, purified from membranes in DDM (CydD and CydC are not oxidase subunits)

[4] = target: T2, cytochrome bd (G. thermodenitrificans); test: O2 consumption inhibition, Clark-type electrode; conditions: menaquinol-1 substrate (200 μM quinone, 10 mM DTT); 0.025% DDM, pH 7.5, 37 °C; no cardiolipin
[5] = target: T3, cytochrome bd (C. glutamicum); test: O2 consumption inhibition, Clark-type electrode; conditions: menaquinol-1 substrate (200 μM quinone, 10 mM DTT); 0.025% DDM, pH 7.5, 37 °C; no cardiolipin

For cardiolipin [CL], the “fold activation at 10 μM” value [1] was ~ 2 fold.

In the case of CC(C)=CCc1c(C)c(O)c2ccccc2c1O [menaquinol-1], the “O2 consumption, Clark-type electrode” value [2] is reported as “using menaquinol-1 instead of ubiquinol-1 as substrate” and the “O2 consumption, Clark-type electrode” value [3] is reported as “using menaquinol-1 instead of ubiquinol-1 as substrate”.

In the case of CC(C)=CCC/C(C)=C/CC/C(C)=C/Cc1c(C)[nH]c2ccccc2c1=O [aurachin D], the “inhibition at 400 nM” value [4] is reported as “G. thermodenitrificans cytochrome bd was sensitive to inhibition by aurachin D” and the “inhibition at 400 nM” value [5] is reported as “oxygen consumption activity in the presence and absence of CL was sensitive to inhibition by aurachin D”.
